{"source": "paper PMC4515243", "about": "“Phase 1 pharmacokinetic study of the oral pan-AKT inhibitor MK-2206 in Japanese patients with advanced solid tumors” (Cancer Chemotherapy and Pharmacology, 2015)", "origin": "cited, not measured here", "tested_on": "AKT2", "design": "method as in ref 4 = [4]; 4. Lu W, Defeo-Jones D, Davis L et al (2009) In vitro and in vivo antitumor activities of MK-2206, a new allosteric Akt inhibitor [abstract #3714]. In: Proceedings of the 100th annual meeting of the A", "settings": "several cancer cell lines; cited from earlier work"}
{"smiles": "NC1(c2ccc(-c3nc4ccn5c(=O)[nH]nc5c4cc3-c3ccccc3)cc2)CCC1", "note": "[MK-2206]", "values": [{"measurement": "potency on AKT2 activity relative to AKT1", "value": "two to sixfold less potently"}]}
